Laboratory results reported in US20250161395A1, “SPINAL CORD REGENERATION THERAPY” (MOLEAC PTE LTD., priority 2022, published 2025).

Test system: NSC-34 cells
Test: NSC-34 cell differentiation into mature motor neurons
Assay type: cell-based

CC1=C(/C=C/C(C)=C/C=C/C(C)=C/C(=O)O)C(C)(C)CCC1 [RA, retinoic acid]
time to NSC-34 cell differentiation (1 μM RA): 14 days | time to NSC-34 cell differentiation (10 μM RA): 7 days
